These are literature values, as cited in US9403784B1, “Fumarate compounds, pharmaceutical compositions thereof, and methods of use” (priority 2015, dated 2016).

As to `COC(=O)/C=C/C(=O)OC` [DMF, dimethylfumarate], the aqueous solubility entry is listed as “poor aqueous solubility”.
